A short description of the data set: Human HepG2 cell viability assay in 384 well format. Set-up: dose 125 nL, time 70.5 hour; concentration not given beside the values. The class given is toxicity, cell-based. The note with it: HepG2 cells, read-out: Inhibition.

Structures are written as SMILES.

Consider `CNS(=O)(=O)c1cccc(C(C)NCc2ccccc2OC)c1` (stereo not given), for which the cytotoxicity at 70.5 h was -4.76%.

Turning to `Cc1cc(NC(=O)CN(C)CC2CCCN2c2cccnn2)n(C)n1` (stereo not given), the cytotoxicity at 70.5 h is -5.26%.

For `CCCn1cc(CNCC(c2ccc(C)s2)N2CCOCC2)cn1` (stereo not given), the cytotoxicity at 70.5 h amounted to 8.59%.

Consider `Cc1ccc(C2CCCN2CC(=O)N(CCC#N)c2ccccc2)cc1` (stereo not given), for which the cytotoxicity at 70.5 h is -7.81%.

On to `Cc1cnn(C2CN(CC(O)COCc3ccc4c(c3)OCO4)C2)c1` (stereo not given), for which the cytotoxicity at 70.5 h is -0.637%.

Take `CCS(=O)(=O)CC(=O)N1CCCC1c1noc(C2CC2)n1` (stereo not given): the cytotoxicity at 70.5 h is -8.04%.

As for `COC(=O)C(C)Sc1nnnn1C1CCOCC1` (stereo not given), the cytotoxicity at 70.5 h is -5.79%.

In the case of `Cc1nc(C)c(CNCc2nnc3n2CCCC3C(F)(F)F)s1` (stereo not given), the cytotoxicity at 70.5 h was -8.57%.

Regarding `COc1ccc(C(=O)NC2CC2)c(OC)c1`, the cytotoxicity at 70.5 h is -11.5%.

Turning to `COc1ncccc1NC(=O)N1CCCC1c1cc(C)no1` (stereo not given), the cytotoxicity at 70.5 h was -16.3%.

With `CCNC(=O)NC(=O)CN1CCC(c2c[nH]c3ccc(OC)cc23)CC1`, the cytotoxicity at 70.5 h was 24.1%.

Regarding `CNC(=O)NC(=O)CSC(C)c1ccccc1F` (stereo not given), the cytotoxicity at 70.5 h was -15.4%.

For `CCOC(=O)NC(=O)CSC(C)c1ccccc1F` (stereo not given), the cytotoxicity at 70.5 h was -14.4%.

Take `COc1ccc2[nH]cc(C3CCN(CCC(N)=O)CC3)c2c1`: the cytotoxicity at 70.5 h was -11.2%.

In the case of `Cc1cnn(Cc2cc(F)ccc2F)c1NC(=O)C1CCOCC1`, the cytotoxicity at 70.5 h was found to be 1.07%.

For `CCNC(=O)Nc1c(C)cnn1Cc1cc(F)ccc1F`, the cytotoxicity at 70.5 h was -11.6%.

For the compound `CNC(=O)CCNC(=O)c1cc(Br)c2c(c1)OCCO2`, the cytotoxicity at 70.5 h is -6.67%.

As to `CCn1cc(C#N)c(=O)c2cc(Br)ccc21`, the cytotoxicity at 70.5 h was -13.9%.

For the compound `CC(=O)NCCNC(=O)c1cc(Br)c2c(c1)OCCO2`, the cytotoxicity at 70.5 h was -11.6%.

For the compound `Cc1cnn(C2CN(CC(O)c3ccccc3)C2)c1` (stereo not given), the cytotoxicity at 70.5 h is 27.4%.

As to `Cc1ccc(N2CCCC(N(C)Cc3cc(C)on3)C2)nn1` (stereo not given), the cytotoxicity at 70.5 h is -5.56%.

Take `CCCNC(=O)Cn1cc(C#N)c(=O)c2cc(Br)ccc21`: the cytotoxicity at 70.5 h is -8.09%.

Consider `CCCNC(=O)c1cc(Br)c2c(c1)OCCO2`, for which the cytotoxicity at 70.5 h is -9.42%.

Take `Cn1nnc(C2(NC(=O)c3ccccc3)CCCC2)n1`: the cytotoxicity at 70.5 h is -8.79%.

Regarding `CCCC(C)Sc1nnnn1C1CCOCC1` (stereo not given), the cytotoxicity at 70.5 h is -12.8%.

`Cc1cc(C2CCCN2C(=O)NCc2cccnc2)on1` (stereo not given): the cytotoxicity at 70.5 h is -7.94%.

Regarding `CC(C)OCCSc1nnnn1C1CCOCC1`, the cytotoxicity at 70.5 h was -8.16%.

Turning to `Cc1oc(-c2ccco2)nc1CC(=O)NCC(C)(C)N(C)C`, the cytotoxicity at 70.5 h is -8.24%.

As to `Cc1cc(C2CCCN2C(=O)NCc2cccnc2N(C)C)on1` (stereo not given), the cytotoxicity at 70.5 h is 23.2%.

Consider `O=C(COC1CCCC1)N1CCCC1c1noc(C2CC2)n1` (stereo not given), for which the cytotoxicity at 70.5 h was -9.93%.

In the case of `CC(Sc1nnnn1C1CCOCC1)C(F)(F)F` (stereo not given), the cytotoxicity at 70.5 h is -7.71%.

As for `CC(C)C(=O)Nc1ccc(C(O)Cn2nc(-c3cccs3)oc2=O)cc1` (stereo not given), the cytotoxicity at 70.5 h was 28.2%.

Regarding `COc1cc(CNC(C)c2cccc(Cl)c2)cc(OC)c1OC` (stereo not given), the cytotoxicity at 70.5 h is -9.01%.

Turning to `COc1cccc(C2CCCN2C(=O)NCCCn2cccn2)c1` (stereo not given), the cytotoxicity at 70.5 h was -6.25%.

Take `NC(=O)C1CCCN1Cc1cccc(NC(=O)c2cccs2)c1` (stereo not given): the cytotoxicity at 70.5 h was found to be 2.36%.

As for `O=C(NCCCn1cccn1)N1CCCC1c1ccsc1` (stereo not given), the cytotoxicity at 70.5 h was -9.1%.

For the compound `CCN(C)C(=O)C1(c2ccc(F)cc2F)CCC1`, the cytotoxicity at 70.5 h amounted to 4.95%.

For `COC(=O)c1cnc(/C=C/c2ccc(C(=O)O)cc2)s1`, the cytotoxicity at 70.5 h stood at 0.0314%.

Consider `CC(=O)Nc1ccc(/C=C/c2ncc(C(=O)O)s2)cc1`, for which the cytotoxicity at 70.5 h is -1.46%.

For the compound `CC(C)C(C)NC(=O)CN1CCSCC1` (stereo not given), the cytotoxicity at 70.5 h is -2.11%.

Take `CCC(CC)NC(=O)CN1CCSCC1`: the cytotoxicity at 70.5 h was 3.72%.

Consider `CC(C(=O)N1CCc2ccccc21)N1CCc2cncnc2C1` (stereo not given), for which the cytotoxicity at 70.5 h is -3.31%.

Turning to `CCNC(=O)CNC(=O)c1ccn(S(=O)(=O)c2ccc(C)cc2)c1`, the cytotoxicity at 70.5 h was found to be 1.83%.

For the compound `Cc1nnc(NCCc2nc3ccc(F)cc3n2C)c(C#N)c1C`, the cytotoxicity at 70.5 h is 1.4%.

Take `COc1ccccc1CCNC(=O)CNC1CCc2nc(C)nn2C1` (stereo not given): the cytotoxicity at 70.5 h is -0.271%.

Turning to `COC(=O)NCC(=O)NCC1(c2c(F)cccc2F)CCCC1`, the cytotoxicity at 70.5 h is 1.47%.

With `Cn1c(CCNc2nccnc2C#N)nc2ccc(F)cc21`, the cytotoxicity at 70.5 h turned out to be 2.09%.

For `O=C(CCC1CCCCC1)NS(=O)(=O)CC1CC1`, the cytotoxicity at 70.5 h was found to be 14.7%.

Take `Cc1nc2n(n1)CC(NCC(=O)NCCCOC(C)C)CC2` (stereo not given): the cytotoxicity at 70.5 h is -0.276%.

Turning to `Cc1cc(=O)n(C)cc1NC(=O)Cc1ccc(C(F)(F)F)cc1`, the cytotoxicity at 70.5 h was 0.135%.

Consider `O=C(Cc1cnn(-c2ccccc2)n1)NC1CCOCC1`, for which the cytotoxicity at 70.5 h was -0.727%.

With `Cc1nc(C)c(C(=O)NCc2nc3cccc(C)c3n2C)o1`, the cytotoxicity at 70.5 h is -0.751%.

As to `CCNc1ncc(C(=O)Nc2nnc(N3CCCCC3)[nH]2)s1`, the cytotoxicity at 70.5 h is -2.41%.

Turning to `CC(C)(O)CSCCNC(=O)c1cc(F)ccc1F`, the cytotoxicity at 70.5 h came to 12.9%.

On to `CC(C)(O)CSCCNC(=O)c1ccc(F)cc1Cl`, for which the cytotoxicity at 70.5 h is -2.51%.

As for `CN(Cc1ccccc1NCc1cscn1)C(=O)c1cccs1`, the cytotoxicity at 70.5 h is -3.79%.

As for `CC(C(=O)N1CCOCC1)N1CCc2cncnc2C1` (stereo not given), the cytotoxicity at 70.5 h was -4.71%.

For the compound `CCN1CCN(C(=O)C(C)N2CCc3cncnc3C2)CC1` (stereo not given), the cytotoxicity at 70.5 h was -4.42%.

In the case of `Cc1cnc(CN(Cc2ccc(C#N)cc2F)C2CCN(C)C2)o1` (stereo not given), the cytotoxicity at 70.5 h is -8.53%.

With `O=C1NCCCCC1NS(=O)(=O)N1CCCCC1` (stereo not given), the cytotoxicity at 70.5 h was -10.6%.

Turning to `Cc1cc(C)c2c(c1)C(NC(=O)CSCc1ccncc1)CCO2` (stereo not given), the cytotoxicity at 70.5 h is -7.37%.

Turning to `CN(Cc1ccc(C#N)cc1)Cn1nccc1-c1cccnc1`, the cytotoxicity at 70.5 h is -4%.

Consider `COc1ccccc1C(NC(=O)NC1CC1)c1noc(C)n1` (stereo not given), for which the cytotoxicity at 70.5 h is -9%.

For `COc1ccccc1C(NC(=O)C1CCCC1)c1noc(C)n1` (stereo not given), the cytotoxicity at 70.5 h came out at 1.95%.

Regarding `COc1ccccc1C(NC(=O)C1CCC1)c1noc(C)n1` (stereo not given), the cytotoxicity at 70.5 h is -5.9%.

On to `CCC(Nc1ccc(Oc2cccc(C#N)c2)cc1)C(N)=O` (stereo not given), for which the cytotoxicity at 70.5 h is -12.3%.

Turning to `Cn1nnc2cc(C(=O)NS(=O)(=O)c3ccc(F)cc3)ccc21`, the cytotoxicity at 70.5 h is -3.7%.

`OC[C@@H](O)CN(CCC(F)(F)F)c1ncc(Cl)cn1`: the cytotoxicity at 70.5 h is -4.91%.

On to `O=S(=O)(Nc1cn[nH]c1)c1ccc(F)c(Br)c1`, for which the cytotoxicity at 70.5 h is -4.68%.

Take `Cc1cnc(C(C)(C)NC(=O)NCc2ccc(C#N)cc2F)s1`: the cytotoxicity at 70.5 h is -5.64%.

Turning to `COc1ncccc1NC(=O)NC(C)(C)c1ncc(C)s1`, the cytotoxicity at 70.5 h worked out at 16.5%.

Take `Cn1cnc2cc(C(=O)NS(=O)(=O)c3ccc(F)cc3)ccc21`: the cytotoxicity at 70.5 h is -5.36%.

In the case of `Cc1cnc(C(C)(C)NC(=O)NCc2ccon2)s1`, the cytotoxicity at 70.5 h is -9.99%.

As for `N#Cc1cccc(OCCCN2CCN(C(=O)c3ccoc3)CC2)c1`, the cytotoxicity at 70.5 h is -10%.

Regarding `OC(CN(Cc1ccccc1)Cc1cccnc1)c1ccco1` (stereo not given), the cytotoxicity at 70.5 h worked out at 14.4%.

On to `CCc1nn(C)c(CC)c1CNC(=O)Nc1cccc([S+](C)[O-])c1` (stereo not given), for which the cytotoxicity at 70.5 h was 14.6%.

For `CCc1nsc(NC2CC(=O)N(C3CC3)C2)n1` (stereo not given), the cytotoxicity at 70.5 h is -0.811%.

With `COCC(C)(CCO)NC(=O)Nc1c(F)cccc1Br` (stereo not given), the cytotoxicity at 70.5 h came to 1.51%.

As to `CCCc1noc(CS(=O)(=O)CC(=O)NC(C)CCC)n1` (stereo not given), the cytotoxicity at 70.5 h was -5.83%.

As for `COCCCNC(=O)Nc1cccc2ncccc12`, the cytotoxicity at 70.5 h stood at 30.8%.

For `CNS(=O)(=O)c1ccc(CNC(=O)c2cc(C)no2)cc1`, the cytotoxicity at 70.5 h was -11.9%.

For the compound `O=C(CCS(=O)(=O)C1CCCC1)NCCc1ccc2c(c1)OCCO2`, the cytotoxicity at 70.5 h is -2.36%.

On to `CCc1ncc(C(=O)N2CCn3c(CC)nnc3C2)s1`, for which the cytotoxicity at 70.5 h is -13.9%.

On to `CCc1nnc2n1CCN(C(=O)c1cnc(C3CC3)s1)C2`, for which the cytotoxicity at 70.5 h is -9.47%.

Regarding `CS(=O)(=O)CCC(=O)N(Cc1c(F)cccc1F)C1CCCC1`, the cytotoxicity at 70.5 h stood at 21%.

On to `CNS(=O)(=O)c1ccc(CNC(=O)c2cc(-c3ccccn3)no2)cc1`, for which the cytotoxicity at 70.5 h was -8.91%.

Regarding `CCC(CC)(CC(=O)OC)NC(=O)Nc1nnc(-c2ccccn2)s1`, the cytotoxicity at 70.5 h is 9.93%.

Regarding `Cc1cccc(C2CCCCN2C(=O)CCCS(C)(=O)=O)c1C` (stereo not given), the cytotoxicity at 70.5 h was -9.93%.

For `CNS(=O)(=O)CC(=O)N(Cc1c(F)cccc1F)C1CCCC1`, the cytotoxicity at 70.5 h was found to be 1.88%.

Turning to `CC(C)NC(=O)CN(C)C1CCN(c2cnc3ccccc3n2)CC1`, the cytotoxicity at 70.5 h was found to be 20.5%.

As for `Cc1nsc(NC2CC(=O)N(C(C)(C)C)C2)n1` (stereo not given), the cytotoxicity at 70.5 h worked out at 11.5%.

As for `O=C(NCCCF)Nc1ccc2nc(N3CCOCC3)oc2c1`, the cytotoxicity at 70.5 h was 12.5%.

Turning to `CC(C)N(Cc1ccc(C#N)cc1)C(=O)Nc1ccccn1`, the cytotoxicity at 70.5 h was -7.3%.

Consider `CN(CC1CCCCC1)C(=O)c1cn(C)nc1-c1cccnc1`, for which the cytotoxicity at 70.5 h is 3.52%.

Consider `CCN(C)C(C(=O)Nc1ccc2c(c1)CCC(=O)N2)c1ccccc1` (stereo not given), for which the cytotoxicity at 70.5 h is -15.5%.

Take `O=C1CCCN1CC1CCCCN1C(=O)Nc1cccnc1` (stereo not given): the cytotoxicity at 70.5 h is -1.1%.

For the compound `CC/C=C(/C)C(=O)NCc1ccnc(OC2CCOCC2)c1`, the cytotoxicity at 70.5 h was -9.32%.

In the case of `O=S(=O)(CC1CCOCC1)NCc1ncc(-c2ccccc2)o1`, the cytotoxicity at 70.5 h is -5.19%.

Consider `CCC(CC(=O)Nc1ccc2c(c1)CC(=O)N2)c1ccccc1` (stereo not given), for which the cytotoxicity at 70.5 h was -6.03%.

As to `FC(F)(F)c1n[nH]c2c1CN(Cc1cn3ccccc3n1)CC2`, the cytotoxicity at 70.5 h was -6.32%.

`Cc1nc(NC(=O)OC(C)(C)C)sc1C#N`: the cytotoxicity at 70.5 h was -6.61%.

Consider `O=C(Nc1ccc(F)cc1)N(CCC(F)(F)F)C[C@H](O)CO`, for which the cytotoxicity at 70.5 h is -0.146%.

In the case of `CCN(CC)S(=O)(=O)N(C)Cc1ccncc1`, the cytotoxicity at 70.5 h was -8.49%.

As for `CC(CCN(C)C)NC(=O)N1CCSC(C)(C)C1` (stereo not given), the cytotoxicity at 70.5 h was -1.34%.

On to `COc1ccc(CNC(C)c2cccc(Br)c2)c(OC)c1OC` (stereo not given), for which the cytotoxicity at 70.5 h was found to be 17.6%.

For the origin of these results see ChEMBL document CHEMBL3507680, “University of Dundee, Gates Library screen for HepG2 cell viability”.
